Assay results as given in US6358885B1, “Substituted phenylheterocyclic herbicides” (Mississippi State University, priority 1992, dated 2002).

Key:
Assay in all cases: Test B preemergence/postemergence greenhouse plant response rating 0 to 10
[1] = system: soybean; format: in vivo, Glycine max; details: for Plant response rating, Soybean: 0 to 10 scale
Method in brief: (§1)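 Test chemicals, dissolved in a non-phytotoxic solvent, were applied to soil at planting and, at the same time, over foliage of seedlings at the one to four leaf stage.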

[2] = system: bedstraw; format: in vivo, Galium aparine; details: for Plant response rating, Bedstraw: 0 to 10 scale
Method in brief: as §1

[3] = system: barley; format: in vivo, Hordeum vulgare; details: for Plant response rating, Barley: 0 to 10 scale
Method in brief: as §1

[4] = system: chickweed; format: in vivo, Stellaria media; details: for Plant response rating, Chickweed: 0 to 10 scale
Method in brief: as §1

[5] = system: rice; format: in vivo, Oryza sativa; details: for Plant response rating, Rice: 0 to 10 scale
Method in brief: as §1

[6] = system: purple nutsedge; format: in vivo, Cyperus rotundus; details: for Plant response rating, Nutsedge: 0 to 10 scale
Method in brief: as §1

[7] = system: lambsquarters; format: in vivo, Chenopodium album; details: for Plant response rating, Lambsquarter: 0 to 10 scale
Method in brief: as §1

[8] = system: blackgrass; format: in vivo, Alopecurus myosuroides; details: for Plant response rating, Blackgrass: 0 to 10 scale
Method in brief: as §1

[9] = system: wild oat; format: in vivo, Avena fatua; details: for Plant response rating, Wild oat: 0 to 10 scale
Method in brief: as §1

[10] = system: sugar beet; format: in vivo, Beta vulgaris; details: for Plant response rating, Sugar beet: 0 to 10 scale
Method in brief: as §1

[11] = system: sorghum; format: in vivo, Sorghum bicolor; details: for Plant response rating, Sorghum: 0 to 10 scale
Method in brief: as §1

[12] = system: cocklebur; format: in vivo, Xanthium pensylvanicum; details: for Plant response rating, Cocklebur: 0 to 10 scale
Method in brief: as §1

[13] = system: wild buckwheat; format: in vivo, Polygonum convolvulus; details: for Plant response rating, Wild buckwheat: 0 to 10 scale
Method in brief: as §1

[14] = system: barnyardgrass; format: in vivo, Echinochloa crus-galli; details: for Plant response rating, Barnyardgrass: 0 to 10 scale
Method in brief: as §1

[15] = system: rape; format: in vivo, Brassica napus; details: for Plant response rating, Rape: 0 to 10 scale
Method in brief: as §1

[16] = system: corn; format: in vivo, Zea mays; details: for Plant response rating, Corn: 0 to 10 scale
Method in brief: as §1

[17] = system: velvetleaf; format: in vivo, Abutilon theophrasti; details: for Plant response rating, Velvetleaf: 0 to 10 scale
Method in brief: as §1

[18] = system: wheat; format: in vivo, Triticum aestivum; details: for Plant response rating, Wheat: 0 to 10 scale
Method in brief: as §1

[19] = system: cheatgrass; format: in vivo, Bromus secalinus; details: for Plant response rating, Cheatgrass: 0 to 10 scale
Method in brief: as §1

[20] = system: cotton; format: in vivo, Gossypium hirsutum; details: for Plant response rating, Cotton: 0 to 10 scale
Method in brief: as §1

[21] = system: morningglory; format: in vivo, Ipomoea hederacea; details: for Plant response rating, Morningglory: 0 to 10 scale
Method in brief: as §1

[22] = system: crabgrass; format: in vivo, Digitaria spp.; details: for Plant response rating, Crabgrass: 0 to 10 scale
Method in brief: as §1

[23] = system: giant foxtail; format: in vivo, Setaria faberii; details: for Plant response rating, Giant foxtail: 0 to 10 scale
Method in brief: as §1

CC(C)(C)C(=O)COc1cc(-c2nn3c(c2Cl)CCCC3)c(Cl)cc1Cl [Compound 77]
2: Plant response rating, Barley ([3]; POSTEMERGENCE, Rate 50 g/ha) | Plant response rating, Chickweed ([4]; POSTEMERGENCE, Rate 50 g/ha) | Plant response rating, Nutsedge ([6]; POSTEMERGENCE, Rate 50 g/ha) | Plant response rating, Nutsedge ([6]; Rate 200 g/ha, POSTEMERGENCE) | Plant response rating, Blackgrass ([8]; POSTEMERGENCE, Rate 50 g/ha) | Plant response rating, Blackgrass ([8]; PREEMERGENCE, Rate 50 g/ha) | Plant response rating, Wheat ([18]; POSTEMERGENCE, Rate 50 g/ha) | Plant response rating, Cheatgrass ([19]; POSTEMERGENCE, Rate 50 g/ha) | Plant response rating, Crabgrass ([22]; PREEMERGENCE, Rate 50 g/ha) | Plant response rating, Giant foxtail ([23]; PREEMERGENCE, Rate 50 g/ha) | Plant response rating (0 to 10 scale), Giant foxtail ([23]; PREEMERGENCE, Rate 200 g/ha)
6: Plant response rating, Rice ([5]; Rate 200 g/ha, POSTEMERGENCE) | Plant response rating, Rape ([15]; POSTEMERGENCE, Rate 50 g/ha) | Plant response rating (0 to 10 scale), Rape ([15]; PREEMERGENCE, Rate 200 g/ha) | Plant response rating, Crabgrass ([22]; Rate 200 g/ha, POSTEMERGENCE) | Plant response rating, Giant foxtail ([23]; Rate 200 g/ha, POSTEMERGENCE)
8: Plant response rating, Wild buckwheat ([13]; PREEMERGENCE, Rate 50 g/ha) | Plant response rating, Barnyardgrass ([14]; Rate 200 g/ha, POSTEMERGENCE) | Plant response rating, Morningglory ([21]; POSTEMERGENCE, Rate 50 g/ha)
4: Plant response rating, Bedstraw ([2]; POSTEMERGENCE, Rate 50 g/ha) | Plant response rating, Rice ([5]; POSTEMERGENCE, Rate 50 g/ha) | Plant response rating, Barnyardgrass ([14]; POSTEMERGENCE, Rate 50 g/ha)
7: Plant response rating, Soybean ([1]; Rate 200 g/ha, POSTEMERGENCE) | Plant response rating, Cocklebur ([12]; POSTEMERGENCE, Rate 50 g/ha) | Plant response rating, Rape ([15]; Rate 200 g/ha, POSTEMERGENCE) | Plant response rating (0 to 10 scale), Velvetleaf ([17]; PREEMERGENCE, Rate 200 g/ha)
0: Plant response rating, Soybean ([1]; PREEMERGENCE, Rate 50 g/ha) | Plant response rating (0 to 10 scale), Soybean ([1]; PREEMERGENCE, Rate 200 g/ha) | Plant response rating, Barley ([3]; PREEMERGENCE, Rate 50 g/ha) | Plant response rating (0 to 10 scale), Barley ([3]; PREEMERGENCE, Rate 200 g/ha) | Plant response rating, Chickweed ([4]; PREEMERGENCE, Rate 50 g/ha) | Plant response rating, Rice ([5]; PREEMERGENCE, Rate 50 g/ha) | Plant response rating (0 to 10 scale), Rice ([5]; PREEMERGENCE, Rate 200 g/ha) | Plant response rating, Nutsedge ([6]; PREEMERGENCE, Rate 50 g/ha) | Plant response rating (0 to 10 scale), Nutsedge ([6]; PREEMERGENCE, Rate 200 g/ha) | Plant response rating, Wild oat ([9]; PREEMERGENCE, Rate 50 g/ha) | Plant response rating (0 to 10 scale), Wild oat ([9]; PREEMERGENCE, Rate 200 g/ha) | Plant response rating, Sorghum ([11]; PREEMERGENCE, Rate 50 g/ha) | Plant response rating (0 to 10 scale), Sorghum ([11]; PREEMERGENCE, Rate 200 g/ha) | Plant response rating, Cocklebur ([12]; PREEMERGENCE, Rate 50 g/ha) | Plant response rating, Barnyardgrass ([14]; PREEMERGENCE, Rate 50 g/ha) | Plant response rating, Rape ([15]; PREEMERGENCE, Rate 50 g/ha) | Plant response rating, Corn ([16]; PREEMERGENCE, Rate 50 g/ha) | Plant response rating (0 to 10 scale), Corn ([16]; PREEMERGENCE, Rate 200 g/ha) | Plant response rating, Wheat ([18]; PREEMERGENCE, Rate 50 g/ha) | Plant response rating (0 to 10 scale), Wheat ([18]; PREEMERGENCE, Rate 200 g/ha) | Plant response rating, Cotton ([20]; PREEMERGENCE, Rate 50 g/ha) | Plant response rating (0 to 10 scale), Cotton ([20]; PREEMERGENCE, Rate 200 g/ha) | Plant response rating, Morningglory ([21]; PREEMERGENCE, Rate 50 g/ha) | Plant response rating (0 to 10 scale), Morningglory ([21]; PREEMERGENCE, Rate 200 g/ha)
5: Plant response rating, Soybean ([1]; POSTEMERGENCE, Rate 50 g/ha) | Plant response rating, Bedstraw ([2]; Rate 200 g/ha, POSTEMERGENCE) | Plant response rating, Sorghum ([11]; POSTEMERGENCE, Rate 50 g/ha) | Plant response rating, Sorghum ([11]; Rate 200 g/ha, POSTEMERGENCE) | Plant response rating, Wheat ([18]; Rate 200 g/ha, POSTEMERGENCE) | Plant response rating (0 to 10 scale), Cheatgrass ([19]; PREEMERGENCE, Rate 200 g/ha) | Plant response rating, Crabgrass ([22]; POSTEMERGENCE, Rate 50 g/ha) | Plant response rating, Giant foxtail ([23]; POSTEMERGENCE, Rate 50 g/ha)
1: Plant response rating (0 to 10 scale), Chickweed ([4]; PREEMERGENCE, Rate 200 g/ha) | Plant response rating, Wild oat ([9]; POSTEMERGENCE, Rate 50 g/ha) | Plant response rating (0 to 10 scale), Cocklebur ([12]; PREEMERGENCE, Rate 200 g/ha)
9: Plant response rating, Cocklebur ([12]; Rate 200 g/ha, POSTEMERGENCE) | Plant response rating (0 to 10 scale), Wild buckwheat ([13]; PREEMERGENCE, Rate 200 g/ha) | Plant response rating, Morningglory ([21]; Rate 200 g/ha, POSTEMERGENCE)
10: Plant response rating (0 to 10 scale), Bedstraw ([2]; PREEMERGENCE, Rate 200 g/ha) | Plant response rating, Lambsquarter ([7]; POSTEMERGENCE, Rate 50 g/ha) | Plant response rating, Lambsquarter ([7]; PREEMERGENCE, Rate 50 g/ha) | Plant response rating (0 to 10 scale), Lambsquarter ([7]; PREEMERGENCE, Rate 200 g/ha) | Plant response rating, Lambsquarter ([7]; Rate 200 g/ha, POSTEMERGENCE) | Plant response rating, Sugar beet ([10]; POSTEMERGENCE, Rate 50 g/ha) | Plant response rating, Sugar beet ([10]; Rate 200 g/ha, POSTEMERGENCE) | Plant response rating, Wild buckwheat ([13]; POSTEMERGENCE, Rate 50 g/ha) | Plant response rating, Wild buckwheat ([13]; Rate 200 g/ha, POSTEMERGENCE) | Plant response rating, Velvetleaf ([17]; POSTEMERGENCE, Rate 50 g/ha) | Plant response rating, Velvetleaf ([17]; Rate 200 g/ha, POSTEMERGENCE) | Plant response rating, Cotton ([20]; POSTEMERGENCE, Rate 50 g/ha) | Plant response rating, Cotton ([20]; Rate 200 g/ha, POSTEMERGENCE)
3: Plant response rating, Bedstraw ([2]; PREEMERGENCE, Rate 50 g/ha) | Plant response rating, Barley ([3]; Rate 200 g/ha, POSTEMERGENCE) | Plant response rating, Chickweed ([4]; Rate 200 g/ha, POSTEMERGENCE) | Plant response rating (0 to 10 scale), Blackgrass ([8]; PREEMERGENCE, Rate 200 g/ha) | Plant response rating, Blackgrass ([8]; Rate 200 g/ha, POSTEMERGENCE) | Plant response rating, Wild oat ([9]; Rate 200 g/ha, POSTEMERGENCE) | Plant response rating, Sugar beet ([10]; PREEMERGENCE, Rate 50 g/ha) | Plant response rating (0 to 10 scale), Sugar beet ([10]; PREEMERGENCE, Rate 200 g/ha) | Plant response rating (0 to 10 scale), Barnyardgrass ([14]; PREEMERGENCE, Rate 200 g/ha) | Plant response rating, Corn ([16]; POSTEMERGENCE, Rate 50 g/ha) | Plant response rating, Corn ([16]; Rate 200 g/ha, POSTEMERGENCE) | Plant response rating, Velvetleaf ([17]; PREEMERGENCE, Rate 50 g/ha) | Plant response rating, Cheatgrass ([19]; PREEMERGENCE, Rate 50 g/ha) | Plant response rating, Cheatgrass ([19]; Rate 200 g/ha, POSTEMERGENCE) | Plant response rating (0 to 10 scale), Crabgrass ([22]; PREEMERGENCE, Rate 200 g/ha)
